Values after ≈ are worked out from the molar mass of the structure shown. Where a name gives a salt, the structure may show the parent alone.

This passage reports melting point and solubility results from patent US6809214B2, “Shortened synthesis of 3,3-diarylpropylamine derivatives” (Schwartz Pharma AG, priority 2000, dated 2004).

Data set [1] is described as follows: Solubilities at ambient temperature. The data set is classed as physicochemical.

In turn, `O=C1C[C@H](c2ccccc2)c2cc(C(=O)O)ccc2O1` (as salt: salt) [Example 3, (R)-4-Phenyl-2-chromanone-6-carboxylic acid] showed a melting point of 197.5 °C.
`CC(C)N(CC[C@H](c1ccccc1)c1cc(CO)ccc1O)C(C)C` [Example 13, (R)-2-(3-diisopropylamino-1-phenylpropyl)-4-hydroxymethylphenol]: the solubility is around 10000 µg/mL (≈ 29.3 mM) in data set [1] (in water); below 200 µg/mL in data set [1] (organic solvent or mixture, in 2-butanone); below 200 µg/mL in data set [1] (organic solvent or mixture, in dichloromethane); below 200 µg/mL in data set [1] (organic solvent or mixture, in ethyl acetate); above 50000 µg/mL in data set [1] (organic solvent or mixture, in methanol).
The molecule `O=C1CC(c2ccccc2)c2cc(C(=O)O)ccc2O1` (racemic) [Example 1, (R,S)-4-Phenyl-2-chromanone-6-carboxylic acid] had a melting point of 246 °C.
Take `CC(C)OC(=O)c1ccc2c(c1)C(c1ccccc1)CC(=O)O2` (racemic) [Example 5c]: the melting point is 85.9 °C.
Consider `O=C1C[C@H](c2ccccc2)c2cc(C(=O)O)ccc2O1` [Example 3, (R)-4-Phenyl-2-chromanone-6-carboxylic acid], for which the melting point turned out to be 224.9 °C.
`COC(=O)c1ccc(O)c([C@H](CCN(C(C)C)C(C)C)c2ccccc2)c1` [Example 8b, (R)-(−)-3-(3-Diisopropylamino-1-phenylpropyl)-4-hydroxybenzoic acid methyl ester]: the melting point was found to be 143.7 °C.
For `CC(C)N(CC[C@H](c1ccccc1)c1cc(C(=O)O)ccc1O)C(C)C` [Example 9, (R)-(−)-3-(Diisopropylamino-1-phenylpropyl)-4-hydroxybenzoic acid], the melting point was determined as 102.3 °C.
Molecule `COC(=O)c1ccc2c(c1)C(c1ccccc1)CC(=O)O2` (racemic) [Example 5a] had a melting point of 97 to 99 °C.
